ChEMBL document CHEMBL4680292, “Neothalfine, a potent natural anti-tumor agent against metastatic colorectal cancer and its primary mechanism” (Bioorg Med Chem, 2021)
pIC50: −log10 of the molar value. The source made the active and inactive calls. The calls are words filed in the database; no cut-off is given here.

How the values were obtained:
HCT-116 [1] = assay: Anticancer activity against human HCT-116 cells assessed as inhibition of cell proliferation measured after 72 hrs by MTT assay; type: functional, cell-based; conditions: HCT-116, 72 h
SW-620 [2] = assay: Induction of mitochondrial membrane potential loss in human SW-620 cells at 3.5 nM by JC-1 staining based fluorescence microscopic analysis; type: functional, cell-based
SW-620 [3] = assay: Inhibition of colony formation in human SW-620 cells assessed as damaged tumor spheres at 3.5 to 30 nM by crystal violet staining based microscopic analysis; type: functional, cell-based; conditions: dose 3.5-30 nM
SMMC-7721 [4] = assay: Cytotoxicity against human SMMC-7721 cells assessed as reduction in cell growth at 15 uM measured after 48 hrs; type: functional, cell-based
PC-3 [5] = assay: Anticancer activity against human PC-3 cells assessed as inhibition of cell proliferation measured after 72 hrs by MTT assay; type: functional, cell-based; conditions: PC-3, 72 h
MHCC97H [6] = assay: Cytotoxicity against human MHCC97H cells assessed as reduction in cell growth at 15 uM measured after 48 hrs; type: functional, cell-based
HCT-116 [7] = assay: Cytotoxicity against human HCT-116 cells assessed as reduction in cell growth at 15 uM measured after 48 hrs; type: functional, cell-based
SW-620 [8] = assay: Anticancer activity against human SW-620 cells assessed as inhibition of cell proliferation measured after 72 hrs by MTT assay; type: functional, cell-based; conditions: SW-620, 72 h
SMMC-7721 [9] = assay: Anticancer activity against human SMMC-7721 cells assessed as inhibition of cell proliferation measured after 72 hrs by MTT assay; type: functional, cell-based; conditions: SMMC-7721, 72 h
MHCC97H [10] = assay: Anticancer activity against human MHCC97H cells assessed as inhibition of cell proliferation measured after 72 hrs by MTT assay; type: functional, cell-based
SW-620 [11] = assay: Induction of cell cycle arrest in human SW-620 cells assessed as increase in number of cells at G2/M phase at 7 nM measured after 72 hrs by PI staining using flow cytometry (reference value: 27.08%); type: functional
MDA-MB-231 [12] = assay: Cytotoxicity against human MDA-MB-231 cells assessed as reduction in cell growth at 15 uM measured after 48 hrs; type: functional, cell-based
T98G [13] = assay: Anticancer activity against human T98G cells assessed as inhibition of cell proliferation measured after 72 hrs by MTT assay; type: functional, cell-based
SK-OV-3 [14] = assay: Cytotoxicity against human SK-OV-3 cells assessed as reduction in cell growth at 15 uM measured after 48 hrs; type: functional, cell-based
SW-620 [15] = assay: Cytotoxicity against human SW-620 cells assessed as reduction in cell growth at 15 uM measured after 48 hrs; type: functional, cell-based
SW-620 [16] = assay: Induction apoptosis in human SW-620 cells assessed as increase in live cells at 15 nM measured after 72 hrs by Annexin VFITC /PI staining with flow cytometry (reference value: 92.6%); type: functional
SW-620 [17] = assay: Induction of apoptosis in human SW-620 cells assessed as increase in cleaved caspase 3/7 level at 11.5 nM relative to control; type: functional
SW-620 [18] = assay: Induction of cell cycle arrest in human SW-620 cells assessed as increase in number of cells at G0/G1 phase at 7 nM measured after 72 hrs by PI staining using flow cytometry (reference value: 60.05%); type: functional
SW-620 [19] = assay: Induction of apoptosis in human SW-620 cells assessed as increase in cleaved caspase 3/7 level at 3.5 nM relative to control; type: functional
T84 [20] = assay: Anticancer activity against human T84 cells assessed as inhibition of cell proliferation measured after 72 hrs by MTT assay; type: functional, cell-based; conditions: T84, 72 h
SW-620 [21] = assay: Induction apoptosis in human SW-620 cells assessed as increase in late apoptotic cells at 15 nM measured after 72 hrs by Annexin VFITC /PI staining with flow cytometry (reference value: 3.18%); type: functional
SW-620 [22] = assay: Induction apoptosis in human SW-620 cells assessed as increase in necrotic cells apoptotic cells at 15 nM measured after 72 hrs by Annexin VFITC /PI staining with flow cytometry (reference value: 0.24%); type: functional
PC-3 [23] = assay: Cytotoxicity against human PC-3 cells assessed as reduction in cell growth at 15 uM measured after 48 hrs; type: functional, cell-based
NCI-H1299 [24] = assay: Anticancer activity against human NCI-H1299 cells assessed as inhibition of cell proliferation measured after 72 hrs by MTT assay; type: functional, cell-based; conditions: NCI-H1299, 72 h
SW-620 [25] = assay: Induction apoptosis in human SW-620 cells assessed as increase in early apoptotic cells at 7 nM measured after 72 hrs by Annexin VFITC /PI staining with flow cytometry (reference value: 4.08%); type: functional
SK-OV-3 [26] = assay: Anticancer activity against human SK-OV-3 cells assessed as inhibition of cell proliferation measured after 72 hrs by MTT assay; type: functional, cell-based; conditions: SK-OV-3, 72 h
MDA-MB-231 [27] = assay: Anticancer activity against human MDA-MB-231 cells assessed as inhibition of cell proliferation measured after 72 hrs by MTT assay; type: functional, cell-based; conditions: MDA-MB-231, 72 h
NCI-H1299 [28] = assay: Cytotoxicity against human NCI-H1299 cells assessed as reduction in cell growth at 15 uM measured after 48 hrs; type: functional, cell-based
SW-620 [29] = assay: Induction apoptosis in human SW-620 cells assessed as increase in live cells at 7 nM measured after 72 hrs by Annexin VFITC /PI staining with flow cytometry (reference value: 92.6%); type: functional
T98G [30] = assay: Cytotoxicity against human T98G cells assessed as reduction in cell growth at 15 uM measured after 48 hrs; type: functional, cell-based
SW-620 [31] = assay: Induction apoptosis in human SW-620 cells assessed as increase in necrotic cells apoptotic cells at 7 nM measured after 72 hrs by Annexin VFITC /PI staining with flow cytometry (reference value: 0.24%); type: functional
T84 [32] = assay: Cytotoxicity against human T84 cells reduction in cell growth at 15 uM measured after 48 hrs; type: functional, cell-based
SW-620 [33] = assay: Induction apoptosis in human SW-620 cells assessed as increase in early apoptotic cells at 15 nM measured after 72 hrs by Annexin VFITC /PI staining with flow cytometry (reference value: 4.08%); type: functional
SW-620 [34] = assay: Induction of apoptosis in human SW-620 cells assessed as increase in cleaved caspase 3/7 level at 15 nM relative to control; type: functional
SW-620 [35] = assay: Induction of apoptosis in human SW-620 cells assessed as increase in cleaved caspase 3/7 level at 7 nM relative to control; type: functional
SW-620 [36] = assay: Induction apoptosis in human SW-620 cells assessed as increase in late apoptotic cells at 7 nM measured after 72 hrs by Annexin VFITC /PI staining with flow cytometry (reference value: 3.18%); type: functional
SW-620 [37] = assay: Induction apoptosis in human SW-620 cells assessed as increase in late apoptotic cells at 12 uM measured after 72 hrs by Annexin VFITC /PI staining with flow cytometry (reference value: 3.18%); type: functional
SW-620 [38] = assay: Induction of cell cycle arrest in human SW-620 cells assessed as increase in number of cells at G2/M phase at 6 uM measured after 72 hrs by PI staining using flow cytometry (reference value: 27.08%); type: functional
SW-620 [39] = assay: Induction of cell cycle arrest in human SW-620 cells assessed as increase in number of cells at G0/G1 phase at 6 uM measured after 72 hrs by PI staining using flow cytometry (reference value: 60.05%); type: functional
SW-620 [40] = assay: Induction apoptosis in human SW-620 cells assessed as increase in early apoptotic cells at 12 uM measured after 72 hrs by Annexin VFITC /PI staining with flow cytometry (reference value: 4.08%); type: functional
SW-620 [41] = assay: Inhibition of colony formation in human SW-620 cells assessed as damaged tumor sphere at 3 to 6 uM by crystal violet staining based microscopic analysis; type: functional, cell-based; conditions: dose 3-6 µM
SW-620 [42] = assay: Induction apoptosis in human SW-620 cells assessed as increase in necrotic cells apoptotic cells at 6 uM measured after 72 hrs by Annexin VFITC /PI staining with flow cytometry (reference value: 0.24%); type: functional
SW-620 [43] = assay: Induction apoptosis in human SW-620 cells assessed as increase in live cells at 12 uM measured after 72 hrs by Annexin VFITC /PI staining with flow cytometry (reference value: 92.6%); type: functional
SW-620 [44] = assay: Induction apoptosis in human SW-620 cells assessed as increase in early apoptotic cells at 6 uM measured after 72 hrs by Annexin VFITC /PI staining with flow cytometry (reference value: 4.08%); type: functional
SW-620 [45] = assay: Induction apoptosis in human SW-620 cells assessed as increase in necrotic cells apoptotic cells at 12 uM measured after 72 hrs by Annexin VFITC /PI staining with flow cytometry (reference value: 0.24%); type: functional
SW-620 [46] = assay: Inhibition of colony formation in human SW-620 cells assessed as effect on tumor sphere formation at 30 nM by crystal violet staining based microscopic analysis; type: functional, cell-based
SW-620 [47] = assay: Induction apoptosis in human SW-620 cells assessed as increase in live cells at 6 uM measured after 72 hrs by Annexin VFITC /PI staining with flow cytometry (reference value: 92.6%); type: functional
SW-620 [48] = assay: Induction apoptosis in human SW-620 cells assessed as increase in late apoptotic cells at 6 uM measured after 72 hrs by Annexin VFITC /PI staining with flow cytometry (reference value: 3.18%); type: functional

SMILES: COc1ccc2cc1Oc1ccc(cc1)Cc1nccc3c4c(c(OC)c(c13)Oc1c3c(cc(OC)c1OC)[C@H](C2)N(C)CC3)OCO4
- pIC50 (HCT-116 [1]): 8.14
- Activity (SW-620 [2]): Active
- inhibition (SW-620 [3]): Active
- Activity (SMMC-7721 [4]): Active
- pIC50 (PC-3 [5]): 6.18
- Activity (MHCC97H [6]): Active
- Activity (HCT-116 [7]): Active
- pIC50 (SW-620 [8]): 8.23
- pIC50 (SMMC-7721 [9]): 7.14
- pIC50 (MHCC97H [10]): 6.84
- Activity (SW-620 [11]): 41%
- Activity (MDA-MB-231 [12]): Active
- pIC50 (T98G [13]): 6.42
- Activity (SK-OV-3 [14]): Active
- Activity (SW-620 [15]): Active
- Activity (SW-620 [16]): 69.82%
- fold change (FC) (SW-620 [17]): 9.3
- Activity (SW-620 [18]): 46.37%
- fold change (FC) (SW-620 [19]): 3.3
- pIC50 (T84 [20]): 8.09
- Activity (SW-620 [21]): 4.83%
- Activity (SW-620 [22]): 0.15%
- Activity (PC-3 [23]): Active
- pIC50 (NCI-H1299 [24]): 6.88
- Activity (SW-620 [25]): 8.7%
- pIC50 (SK-OV-3 [26]): 6.74
- pIC50 (MDA-MB-231 [27]): 6.33
- Activity (NCI-H1299 [28]): Active
- Activity (SW-620 [29]): 82.74%
- Activity (T98G [30]): Active
- Activity (SW-620 [31]): 1.2%
- Activity (T84 [32]): Active
- Activity (SW-620 [33]): 26.2%
- fold change (FC) (SW-620 [34]): 12.9
- fold change (FC) (SW-620 [35]): 8.2
- Activity (SW-620 [36]): 7.36%

SMILES: CCc1c2c(nc3ccc(OC(=O)N4CCC(N5CCCCC5)CC4)cc13)-c1cc3c(c(=O)n1C2)COC(=O)[C@]3(O)CC [IRINOTECAN]
- pIC50 (HCT-116 [1]): 8.36
- Activity (SW-620 [37]): 5.3%
- pIC50 (SW-620 [8]): 8.29
- Activity (SW-620 [38]): 55.12%
- Activity (SW-620 [39]): 33.53%
- Activity (SW-620 [40]): 13.18%
- inhibition (SW-620 [41]): Active
- Activity (SW-620 [42]): 0.34%
- pIC50 (T84 [20]): 8.16
- Activity (SW-620 [43]): 81.18%
- Activity (SW-620 [44]): 7.84%
- Activity (SW-620 [45]): 0.34%
- inhibition (SW-620 [46]): inactive
- Activity (SW-620 [47]): 87.7%
- Activity (SW-620 [48]): 4.12%

SMILES: CC(=O)O[C@@]12CO[C@@H]1C[C@H](O)[C@@]1(C)C(=O)[C@H](O)C3=C(C)[C@@H](OC(=O)[C@H](O)[C@@H](NC(=O)OC(C)(C)C)c4ccccc4)C[C@@](O)([C@@H](OC(=O)c4ccccc4)[C@H]21)C3(C)C [DOCETAXEL ANHYDROUS]
- pIC50 (HCT-116 [1]): 8.40
- pIC50 (SW-620 [8]): 8.33
- pIC50 (T84 [20]): 8.57
